The values below come from US20230338316A1, “ABBAPOLINS AS INHIBITORS AND DEGRADERS OF POLO-LIKE KINASES” (UNIVERSITY OF SOUTH CAROLINA, priority 2022, published 2023).

Series [1] has as its target T1, PLK1 PBD (367-603) (Homo sapiens, UniProt P53350).
T1 construct: PLK1 PBD (367-603) and PLK3 PBD (335-646) proteins were obtained from BPS Biosciences Inc; purchased BPS Biosciences Inc. (San Diego, CA)
Nature of the series: Fluorescence polarization assay, PLK1 PBD. The format is binding. As to conditions: Table 10; target not named at the place; read-out: in vitro binding IC50. On the procedure: Materials were dissolved in DMSO (10 mM) and diluted from 10 nM to 600 μM (maximum of 6% DMSO tolerance in the assay). PLK1 PBD (367-603) and PLK3 PBD (335-646) proteins were obtained from BPS Biosciences Inc. (San Diego, CA); 17 ng PLK1 and 156 ng PLK3 were used per reaction. The fluorescein-tracer phospho-peptides (MAGPMQS[pT]PLNGAKK (SEQ ID NO: 1) for PLK1, and GPLATS[pT]PKNG (SEQ ID NO: 2) for PLK3) were used at a final concentration of 10 nM. Incubation was carried out at room temperature for 45 minutes. Fluorescence was measured using a DTX 880 plate reader and Multimode Analysis software (Beckman Coulter, Brea, CA). The polarization values in millipolarization (mP) units were measured at an excitation wavelength of 488 nm and an emission wavelength of 535 nm. Each data point was performed in triplicate for every experiment, and experiments were performed at least three times. An IC50 value for each compound was calculated from linear regression analysis of the plots.
For orientation: In fluorescence polarisation assays a small probe gives low polarisation when free and higher when bound to something large.

Series [2] relates to HeLa cervical cancer cells. Nature of the series: MTT cell viability assay, HeLa. The class given is cell-based. Conditions: p53 MT, PTEN WT. An excerpt: HeLa cervical cancer cells were obtained from ATCC (Manassas, VA). Histone H2B GFP-labeled HeLa cells (HeLa-H2B-GFP) were kindly provided by Dr. Geoffrey Wahl (Gene Expression Laboratory, Salk Institute), and were confirmed as >95% GFP positive by FACS (data not shown) but were not otherwise authenticated. Cells were maintained in DMEM (Invitrogen™, Carlsebad, CA) supplemented with 10% FBS or Corning® Nu-serum™ (BD™ Biosciences, Franklin Lakes, NJ) and 1% penicillin/streptomycin (Invitrogen™) in a humidified incubator and 5% CO2 at 37° C.
Exponentially growing cells were plated in 96-well dishes. Dose response curves were used to treat cells for 72 hours with inhibitors. Following the three-day treatment, cell viability was measured using the MTT (3-(4,5-dimethylthiazol-2-yl)-2,5-diphenyltetrazolium bromide) colorimetric assay. Cells were incubated for 3 hours with MTT allowing viable cells to metabolize the tetrazolium dye to a purple colored solution. Absorbance measurements (595 nm) were quantified using a DTX 880 plate reader and IC50 values were generated for FLIPs.
A general note: Formazan colour is commonly taken as a measure of viable cells.

In series [3] the test system is apoptosis. Nature of the series: Cell cycle analysis and caspase apoptosis assay. The format is cell-based. As to conditions: versus negative control. An excerpt: Disclosed small molecule inhibitors can also encourage apoptosis.
A short description of series [4]: Tolerability in the PC3 xenograft study. The format is in vivo, athymic nude mice. On the procedure:
The efficacy of promising abbapolin compounds were tested in multiple cancer cell lines. […] To do so, athymic nude mice were injected in their flanks with 2.7×10^6 PC3 prostate cancer cells. After the tumors established at 13 days, 5-8 mice per group were treated with 6359 and 6369 daily for 5 days (M-F) for a total of 15 days. […] This is in agreement with the PLK1 degradation in the xenograft tumor.

Series [5] is described as follows: Solubility in PBS. Conditions: expressed as IP dose. The format is physicochemical.
In series [6] the test system is MOLT-4. The series can be described thus: Single dose cell viability assay, MOLT-4. The format is cell-based. Conditions: MOLT-4 (Leukemia), single dose 10 μM. On the procedure: Lead abbapolin compounds were tested in multiple cancer cell lines, including non-small cell lung cancer (NSCLC) cells, melanoma cells, colon cancer cells, central nervous system (CNS) cancer cells, prostate cancer cells, renal cancer cells, and breast cancer cells. Each of these cancer cells lines were sensitive to the lead abbapolin compounds in a cell viability assay, including 6184 (Table 3), 6277 (Table 4), 6279 (Table 5), 6355 (Table 6), 6359 (Table 7), 6369 (Table 8), and 6421 (Table 9).

The target in series [7] is T2, PLK1 (Homo sapiens, UniProt P53350). Nature of the series: PLK1 degradation in HeLa cells. The format is cell-based. More on the design: endogenous in cells. As to conditions: HeLa cell line, 24, 48 and 72 hours. On the procedure:
For example, PC3 cells were treated with varying dosages of abbapolin 6369, and percent of PLK1 degradation was measured at 24 hours (FIGS. 8A-8B). HeLa cells were treated with 25 μM abbapolin 6369, and time points shown in the assay were 24 hours, 48 hours, and 72 hours (FIGS. 9A-9B). PC3 cells were treated with varying dosages of abbapolin 6329, and percent of PLK1 degradation was measured at 24 hours (FIGS. […]). HeLa cells were treated with varying dosages of abbapolin 6329, and time points shown in the assay were 24 hours, 48 hours, and 72 hours (FIGS. 11A-11B).

The target in series [8] is T2, PLK1. Nature of the series: PLK1 degradation in SH-SY5Y cells. The arrangement: endogenous in cells. The class given is cell-based. On the procedure: Abbapolin compounds activity was evaluated in neuroblastoma cells. […] Further, abbapolins induced PLK1 degradation in SH-SY5Y cells (FIG. 14-16).
For series [9], the target named is T2, PLK1. The series can be described thus: Cellular thermal shift assay (CETSA). The arrangement: endogenous in cells; host or cells: PC3 prostate cancer cells. The format is cell-based. On the procedure: Cellular thermal shift assay (CETSA) was performed with PC3 cells cultured in RPMI medium supplemented with 10% FBS. For an initial determination of the melting profile of PLK1 AND PLK3, cells dispensed into 96-well PCR plates in the above medium (6000 cells/well in 50 μL) were subjected to temperature gradient (38-60° C.) for 10 min. […] Centrifugation was performed at 14000 rpm to sediment the denatured protein content. Supernatant was collected and subjected to SDS-PAGE, and immunodetection was performed using anti-PLK1 and anti-PLK3 antibodies. PLK1 and PLK3 bands were quantified on a LI-COR C-Digit Blot Scanner, and Tagg and Tagg values were calculated for both proteins. In subsequent experiments, cells were treated at increasing doses (3.0, 1.0, 0.3, 0.1, 0.03 μM) of inhibitors together with DMSO control, for 2 h. Cells were then subjected to heat shock at Tagg for 10 min, and unstable protein was removed by centrifugation step. Following immuno-blotting, bands of stable PLK1 and PLK3 were quantified, normalized to loading control and plotted using GraphPad Prism software. EC50 values for inhibitors were calculated. […] The EC50 of the peptides were determined from the curve fit of the dose response.

Where [10] appears, read: 6359 100 mg/kg oral, 6369 40 mg/kg IP, 15 days.

T2 sequence (P53350 whole entry): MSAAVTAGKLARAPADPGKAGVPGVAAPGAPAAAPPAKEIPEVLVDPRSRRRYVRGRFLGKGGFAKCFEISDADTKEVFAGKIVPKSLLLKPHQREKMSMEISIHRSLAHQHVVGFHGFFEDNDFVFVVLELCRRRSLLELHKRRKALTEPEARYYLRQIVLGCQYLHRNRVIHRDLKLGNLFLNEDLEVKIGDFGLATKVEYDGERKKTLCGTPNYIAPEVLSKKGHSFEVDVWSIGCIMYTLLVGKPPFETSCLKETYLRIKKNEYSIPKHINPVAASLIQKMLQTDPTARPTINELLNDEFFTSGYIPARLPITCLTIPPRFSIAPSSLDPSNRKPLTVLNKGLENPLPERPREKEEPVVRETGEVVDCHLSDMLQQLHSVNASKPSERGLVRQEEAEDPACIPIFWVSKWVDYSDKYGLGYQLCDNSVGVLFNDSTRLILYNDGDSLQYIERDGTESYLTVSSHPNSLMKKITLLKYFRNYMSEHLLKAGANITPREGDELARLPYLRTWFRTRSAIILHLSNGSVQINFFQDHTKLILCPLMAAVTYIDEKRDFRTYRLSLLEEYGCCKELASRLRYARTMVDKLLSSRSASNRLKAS
T1 sequence (P53350 367-603): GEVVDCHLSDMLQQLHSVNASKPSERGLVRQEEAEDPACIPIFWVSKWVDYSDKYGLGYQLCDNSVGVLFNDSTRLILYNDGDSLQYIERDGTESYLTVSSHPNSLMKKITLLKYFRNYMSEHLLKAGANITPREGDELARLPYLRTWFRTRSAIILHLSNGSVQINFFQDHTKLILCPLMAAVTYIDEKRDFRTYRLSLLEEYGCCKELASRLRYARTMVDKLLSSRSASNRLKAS

Broadly, the IC50 is the concentration needed to halve the response being measured. In general, EC50 refers to the concentration needed to bring the measured effect to its halfway point. As to “3-(4-octylbenzamido)phenyl phosphate [compound 6369]”, the IC50 in [1] was 115 µM; in series [2] it was 17.5 ± 2.9 µM. Also, in series [3], the levels of apoptosis entry was “high levels of apoptosis”. In series [4] (setting [10]), the body weight entry is listed as “no loss of body weight”. Further, the tolerability / toxicity result in series [4] (setting [10]) is on record as “well tolerated”. Further, the “change in liver, kidney, and prostate weight” value in series [4] (P>0.05) is given as “non-significant”. The “limit of solubility in PBS” value in series [5] amounted to 40 mg/kg. Further, the “Cells Remaining (%)” value in [6] stood at 58.19%. Moreover, the PLK1 degradation entry in series [7] and in series [8] was “degradation of PLK1” each time. Also, the EC50 in series [9] amounted to 0.15 µM.
